Measured values: US10233198B2, “Pro-drugs of NSAIAs with very high skin and membranes penetration rates and their new medicinal uses” (Techfields Pharma Co., Ltd., priority 2007, dated 2019)

Assays:
[1] = in vivo
Method: The in vivo rates of penetration of pro-drugs and their parent drugs through the skin of intact rats were compared. The donor consisted of 20% pro-drugs or their parent drugs in 1 ml of ethanol applied to about 5 cm^2 area on the backs of rats (˜200 g). After 4 hours, the rats were killed, and 5 ml of methanol was added to 1 ml of blood, 1 g of liver, 1 g of kidney, or 1 g of brain (liver, kidney or brain was washed with pH 7.2 buffer for three times) and the mixtures were homogenized. The samples were then centrifuged for 5 min and analyzed using HPLC.
After 4 hours, the rats were killed, and 5 ml of methanol was added to 1 ml of blood, 1 g of liver, 1 g of kidney, or 1 g of brain (liver, kidney or brain was washed with pH 7.2 buffer for three times) and the mixtures were homogenized.

[2] = test system: SLAC/GK rats, type 2 diabetes; assay: Blood lipid levels in type 2 diabetic rats, oral with food; type: in vivo; conditions: for Cholesterol (total), Average: end of fifth week, oral with food, equal to 15 mg/kg of NSAIAs every day
Source text: The pH of stomach juice is 1-3. The negative charge on the phosphate head group of membrane is neutralized by the proton and the positive charge on the amino groups of these pro-drugs cannot bond to the phosphate head group of membranes, then the pro-drugs cannot pass through the wall of the stomach and will not hurt or upset the stomach. The pH of the duodenum is about 5-7 and the pro-drugs can pass through the mucosa of duodenum. The pancreas is nearby and large amount of the pro-drugs will enter there before going to the liver, kidneys, and the general circulation where the drug will be metabolized, so only very low dose of these pro-drugs are needed and very few and low side effects will be caused. The 20% acetone solution of diethylaminoethyl acetylsalicylate.acetylsalicylic acid salt (P-1, in acetone); 4-acetamidophenyl salicylyldimethylaminobutyrate.HCl (P-6), diethylaminoethyl 5-(2,4-difluorophenyl) acetylsalicylate.5-(2,4-difluorophenyl) acetylsalicylic acid salt (P-8), diethylaminoethyl salicylsalicylate.AcOH (P-9), diethylaminoethyl salicylate.AcOH (P-10), diethylaminoethyl 5-acetamido-acetylsalicylate (P-58), diethylaminoethyl acetylsalicylsalicylate. acetylsalicylsalicylic acid salt (P-59), diethylaminoethyl acetylsalicylsalicylate. acetylsalicylsalicylsalicylic acid salt (P-60) (equal to of 15 mg/kg of NSAIAs) were mixed with food and were orally administered to the rats (SLAC/GK, type 2 diabetes, n=7) with food every day for 5 weeks. The blood glucose levels were measured once every 3 days at 3 pm (no fasting) from the second week to the fifth week. The blood lipid levels were measured at the end of the fifth week.

[3] = test system: normal rats; assay: Blood glucose in normal rats, transdermal; type: in vivo; conditions: no fasting; for Blood glucose, normal rats, Baseline: baseline of the treatment group; for Blood glucose, normal rats, Average: transdermal, equal to 20 mg/kg of NSAIAs once per day for 5 weeks, second to fifth week
[4] = test system: SLAC:NOD-IDDM mice, type 1 diabetes; assay: Blood glucose in type 1 diabetic mice, transdermal; type: in vivo; conditions: no fasting; for Blood glucose, type I diabetic mice, Baseline: baseline of the treatment group; for Blood glucose, type I diabetic mice, Average: transdermal, equal to 20 mg/kg of NSAIAs once per day for 7 weeks, fourth to seventh week
Source text: The pro-drugs in this invention lower blood glucose levels in mouse models (SLAC:NOD-IDDM, type 1 diabetes, n=7). 20% acetone solution of diethylaminoethyl acetylsalicylate.acetylsalicylic acid salt (P-1, in acetone); 4-acetamidophenyl salicylyldimethylaminobutyrate.HCl (P-6), diethylaminoethyl 5-(2,4-difluorophenyl) acetylsalicylate.5-(2,4-difluorophenyl) acetylsalicylic acid salt (P-8), diethylaminoethyl salicylsalicylate.AcOH (P-9), diethylaminoethyl salicylate.AcOH (P-10), diethylaminoethyl 5-acetamido-acetylsalicylate (P-58), diethylaminoethyl acetylsalicylsalicylate. acetylsalicylsalicylic acid salt (P-59), diethylaminoethyl acetylsalicylsalicylate. acetylsalicylsalicylsalicylic acid salt (P-60) (equal to of 20 mg/kg of NSAIAs) were administered transdermally to the backs (about 1 cm^2) of mice (fur was shaved) once per day (at 8 am) for 7 weeks. The blood glucose levels were measured once every 3 days at 3 pm (no fasting) from the fourth week to the seventh week.

[5] = test system: SLAC/GK rats, type 2 diabetes; assay: Blood glucose in type 2 diabetic rats, transdermal; type: in vivo; conditions: no fasting; for Blood glucose, diabetic rats, Baseline: baseline of the treatment group; for Blood glucose, diabetic rats, Average: transdermal, equal to 20 mg/kg of NSAIAs once per day for 5 weeks, measured every 3 days, second to fifth week
Source text: (§1) The pro-drugs in this invention lower blood glucose levels in rat models (SLAC/GK, type 2 diabetes, n=7). 50% acetone solution of diethylaminoethyl acetylsalicylate.acetylsaficylic acid salt (P-1, in acetone); 4-acetamidophenyl salicylyldimethylaminobutyrate.HCl (P-6), diethylaminoethyl 5-(2,4-difluorophenyl) acetylsalicylate.5-(2,4-difluorophenyl) acetylsalicylic acid salt (P-8), diethylaminoethyl salicylsalicylate.AcOH (P-9), diethylaminoethyl salicylate.AcOH (P-10), diethylaminoethyl 5-acetamido-acetylsalicylate (P-58), diethylaminoethyl acetylsalicylsalicylate. acetylsalicylsalicylic acid salt (P-59), diethylaminoethyl acetylsalicylsalicylate. acetylsalicylsalicylsalicylic acid salt (P-60) (equal to of 20 mg/kg of NSAIAs) were administered transdermally to the backs (about 1.5 cm^2) of rats (fur was shaved) once per day (at 8 am) for 5 weeks. The blood glucose levels were measured once every 3 days at 4 pm (no fasting) from the second week to the fifth week. The blood lipid levels were measured at the end of the fifth week.

[6] = test system: SLAC/GK rats, type 2 diabetes; assay: Blood lipid levels in type 2 diabetic rats, transdermal; type: in vivo; conditions: for Triglycerides, Baseline: baseline of the treatment group; for Triglycerides, Average: end of fifth week, transdermal, equal to 20 mg/kg of NSAIAs once per day
Source text: as §1

[7] = baseline of the treatment group

Row | Compound | Drug found in rat tissues or plasma after topical application of the parent drug itself [1] | Brain level of prodrug or metabolite ([1]; rat, 4 h) [µg/g] | Kidney level of prodrug or metabolite ([1]; rat, 4 h) [µg/g] | Liver level of prodrug or metabolite ([1]; rat, 4 h) [µg/g] | Plasma level of prodrug or metabolite ([1]; rat, 4 h) [µg/mL] | Blood glucose, normal rats, Baseline [3] [mmol/L] | Blood glucose, type I diabetic mice, Baseline [4] [mmol/L] | Blood glucose, type I diabetic mice, Average [4] [mmol/L] | Blood glucose, diabetic rats, Baseline [5] [mmol/L] | Blood glucose, diabetic rats, Average [5] [mmol/L] | Triglycerides, Baseline [6] [mmol/L] | Triglycerides, Average [6] [mmol/L] | also measured
1 | CC(=O)Nc1ccc(OC(=O)c2ccccc2OC(=O)CCCN(C)C)cc1.Cl [P-6, 4-acetamidophenyl salicylyldimethylaminobutyrate.HCl] | – | – | – | – | – | 6.8 ± 1 | 27.7 ± 4 | 9.5 ± 2 | 16.7 ± 4 | 8.5 ± 2 | 6.3 ± 0.5 | – | Cholesterol (HDL), Baseline [2, 7]: 1.8 ± 0.1 mmol/L; Triglycerides, Baseline [2, 7]: 5.9 ± 0.5 mmol/L; Blood glucose, normal rats, Average [3]: 6.5 ± 1 mmol/L
2 | CC(=O)Oc1ccc(-c2ccc(F)cc2F)cc1C(=O)O.CCN(CC)CCOC(=O)c1cc(-c2ccc(F)cc2F)ccc1OC(C)=O [P-8, diethylaminoethyl 5-(2,4-difluorophenyl) acetylsalicylate.5-(2,4-difluorophenyl) acetylsalicylic acid salt] | – | – | – | – | – | 7.1 ± 1 | 29.1 ± 5 | 9.1 ± 1 | 17.1 ± 3 | 8.1 ± 1 | – | 2.1 ± 0.2 | Cholesterol (total), Baseline [2, 7]: 7.4 ± 0.6 mmol/L; Triglycerides, Baseline [2, 7]: 6.2 ± 0.7 mmol/L; Cholesterol (total), Average [2]: 5.1 ± 0.3 mmol/L
3 | CC(=O)O.CCN(CC)CCOC(=O)c1ccccc1OC(=O)c1ccccc1O [P-9, diethylaminoethyl salicylsalicylate.AcOH] | – | – | – | – | – | 6.5 ± 1 | 26.5 ± 4 | 9.4 ± 1 | – | 8.4 ± 1 | 5.7 ± 0.5 | 2.6 ± 0.2 | Cholesterol (total), Average [2]: 5.3 ± 0.4 mmol/L; Blood glucose, normal rats, Average [3]: 6.7 ± 1 mmol/L
4 | CC(=O)O.CCN(CC)CCOC(=O)c1ccccc1O [P-10, diethylaminoethyl salicylate.AcOH] | – | – | – | – | – | 6.8 ± 1 | 25.8 ± 3 | 8.2 ± 1 | 15.8 ± 3 | 8.2 ± 1 | 6.6 ± 0.6 | 2.9 ± 0.2 | –
5 | O=C(O)c1ccccc1O [Salicylic acid] | – | – | – | – | – | – | – | – | – | – | – | – | Brain level of prodrug or metabolites ([1]; rat, 4 h): 30 ± 6 µg/g; Kidney level of prodrug or metabolites ([1]; rat, 4 h): 45 ± 6 µg/g; Liver level of prodrug or metabolites ([1]; rat, 4 h): 30 ± 8 µg/g; Plasma level of prodrug or metabolites ([1]; rat, 4 h): 80 ± 10 µg/mL

Now from value to compound, other results behind:

Row | Drug found in rat tissues or plasma after topical application of the parent drug itself [1] | Brain level of prodrug or metabolite ([1]; rat, 4 h) [µg/g] | Kidney level of prodrug or metabolite ([1]; rat, 4 h) [µg/g] | Liver level of prodrug or metabolite ([1]; rat, 4 h) [µg/g] | Plasma level of prodrug or metabolite ([1]; rat, 4 h) [µg/mL] | Compound | Blood glucose, normal rats, Baseline [3] [mmol/L] | Blood glucose, type I diabetic mice, Baseline [4] [mmol/L] | Blood glucose, type I diabetic mice, Average [4] [mmol/L] | Blood glucose, diabetic rats, Baseline [5] [mmol/L] | Blood glucose, diabetic rats, Average [5] [mmol/L] | Triglycerides, Baseline [6] [mmol/L] | Triglycerides, Average [6] [mmol/L] | also measured
6 | None of these drugs was found | – | – | – | – | CC(=O)Oc1ccccc1C(=O)O [Aspirin] | – | – | – | – | – | – | – | –
7 | None of these drugs was found | 40 ± 5 | 48 ± 6 | 25 ± 8 | 75 ± 8 | O=C(O)Cc1ccccc1Nc1c(Cl)cccc1Cl [diclofenac] | – | – | – | – | – | – | – | –
8 | None of these drugs was found | 45 ± 5 | 48 ± 6 | 38 ± 8 | 80 ± 8 | CC(C(=O)O)c1cccc(Oc2ccccc2)c1 (centres unmarked) [fenoprofen] | – | – | – | – | – | – | – | –
9 | None of these drugs was found | 35 ± 5 | 45 ± 6 | 35 ± 8 | 70 ± 8 | CC(C)Cc1ccc(C(C)C(=O)O)cc1 (centres unmarked) [ibuprofen] | – | – | – | – | – | – | – | –
